Results reported in PubChem BioAssay AID248 (DTP/NCI, 2004).
Where “and” joins values, the source holds several entries; their conditions need not be identical. Equal entries are not always repeated. Toxic doses and inconclusive results are not listed. Cut-off read from the data, not from the text of the source: active = T/C of 150% or more; inactive = T/C below 125%.

System: L1210 leukemia ip in BDF1 mice, survival T/C
Test: NCI In Vivo Anticancer Drug Screen. Data for tumor model L1210 Leukemia (intraperitoneal) in B6D2F1 (BDF1) mice
Conditions: endpoint: mean survival time, higher = longer survival
Outline: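 Antitumor effect is assessed in tumor-bearing animals. Survival in the compound arm is compared with a vehicle-dosed control arm and expressed as their quotient.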

[1] = dose: 75.0 mg/kg/injection, schedule: Q01DX009 (ip), vehicle: saline
[2] = dose: 100.0 mg/kg/injection, schedule: Q01DX009 (ip), vehicle: Klucel (hydroxypropylcellulose) (HPC)
[3] = dose: 100.0 mg/kg/injection, schedule: Q04DX003 (ip), vehicle: Klucel (hydroxypropylcellulose) (HPC)
[4] = dose: 200.0 mg/kg/injection, schedule: Q01DX009 (ip), vehicle: Klucel (hydroxypropylcellulose) (HPC)
[5] = dose: 200.0 mg/kg/injection, schedule: Q04DX003 (ip), vehicle: Klucel (hydroxypropylcellulose) (HPC)
[6] = dose: 400.0 mg/kg/injection, schedule: Q01DX009 (ip), vehicle: Klucel (hydroxypropylcellulose) (HPC)
[7] = dose: 400.0 mg/kg/injection, schedule: Q04DX003 (ip), vehicle: Klucel (hydroxypropylcellulose) (HPC)
[8] = dose: 100.0 mg/kg/injection, schedule: Q04DX003 (ip), vehicle: saline with Tween-80
[9] = dose: 200.0 mg/kg/injection, schedule: Q04DX003 (ip), vehicle: saline with Tween-80
[10] = dose: 400.0 mg/kg/injection, schedule: Q04DX003 (ip), vehicle: saline with Tween-80
[11] = dose: 50.0 mg/kg/injection, schedule: Q01DX009 (ip), vehicle: saline with Tween-80
[12] = dose: 100.0 mg/kg/injection, schedule: Q01DX009 (ip), vehicle: saline with Tween-80
[13] = dose: 200.0 mg/kg/injection, schedule: Q01DX009 (ip), vehicle: saline with Tween-80
[14] = dose: 100.0 mg/kg/injection, schedule: Q04DX002 (ip), vehicle: Klucel (hydroxypropylcellulose) (HPC)
[15] = dose: 400.0 mg/kg/injection, schedule: Q01DX009 (ip), vehicle: saline with Tween-80
[16] = dose: 100.0 mg/kg/injection, schedule: Q01DX001 (ip), vehicle: saline
[17] = dose: 200.0 mg/kg/injection, schedule: Q01DX001 (ip), vehicle: saline
[18] = dose: 400.0 mg/kg/injection, schedule: Q01DX001 (ip), vehicle: saline
[19] = dose: 200.0 mg/kg/injection, schedule: Q04DX002 (ip), vehicle: Klucel (hydroxypropylcellulose) (HPC)
[20] = dose: 400.0 mg/kg/injection, schedule: Q04DX002 (ip), vehicle: Klucel (hydroxypropylcellulose) (HPC)
[21] = dose: 100.0 mg/kg/injection, schedule: Q04DX002 (ip), vehicle: saline with Tween-80
[22] = dose: 200.0 mg/kg/injection, schedule: Q04DX002 (ip), vehicle: saline with Tween-80
[23] = dose: 400.0 mg/kg/injection, schedule: Q04DX002 (ip), vehicle: saline with Tween-80

Measured: T/C

CCCCN1COC(OCC)C(C)(C)C1 (centres undefined)
inactive: [1] 116 % of control | dose: 150.0 mg/kg/injection, schedule: Q01DX009 (ip), vehicle: saline 113 % of control | dose: 300.0 mg/kg/injection, schedule: Q01DX009 (ip), vehicle: saline 112 % of control

ClC(Cl)(Cl)C1NCCO1 (centres undefined)
inactive: [2] 96 % of control | [3] 102 % of control | [4] 97 % of control | [5] 94 % of control | [6] 89 % of control | [7] 94 % of control

Cc1ccc(O)cn1
inactive: [8] 100 % of control | [9] 96 % of control | [10] 103 % of control

CC/C=C(\C)C1(C(C)C)C(=O)NC(=O)NC1=O
inactive: dose: 75.0 mg/kg/injection, schedule: Q01DX001 (ip), vehicle: carboxymethylcellulose (CMC) 105 % of control

CC(=O)Nc1ccc2c(c1)C(=O)c1cc(NC(C)=O)ccc1-2
inactive: [11] 95 % of control | [12] 95 % of control | [8] 92 % of control | [13] 101 % of control | [9] 86 % of control | [10] 89 % of control

Cc1cc(C)c2c(c1)CC2N (centres undefined)
inactive: dose: 25.0 mg/kg/injection, schedule: Q04DX002 (ip), vehicle: Klucel (hydroxypropylcellulose) (HPC) 95 % of control | dose: 50.0 mg/kg/injection, schedule: Q04DX002 (ip), vehicle: Klucel (hydroxypropylcellulose) (HPC) 95 % of control | [14] 95 % of control and 103 % of control

Nc1cc(N)c([N+](=O)[O-])cc1[N+](=O)[O-]
inactive: [12] 98 % of control | [13] 93 % of control | [15] 98 % of control

c1ccc(C2=NC(c3ccccc3)(C3(c4ccccc4)SCCCS3)CO2)cc1 (centres undefined)
inactive: dose: 75.0 mg/kg/injection, schedule: Q01DX009 (ip), vehicle: Klucel (hydroxypropylcellulose) (HPC) 101 % of control | [3] 102 % of control | dose: 150.0 mg/kg/injection, schedule: Q01DX009 (ip), vehicle: Klucel (hydroxypropylcellulose) (HPC) 98 % of control | [5] 105 % of control | dose: 300.0 mg/kg/injection, schedule: Q01DX009 (ip), vehicle: Klucel (hydroxypropylcellulose) (HPC) 90 % of control | [7] 102 % of control

CCOC(=O)C(=CNc1ccccc1OC)C(=O)OCC
inactive: [11] 95 % of control | [12] 102 % of control | [8] 98 % of control | [13] 106 % of control | [9] 110 % of control | [15] 98 % of control | [10] 102 % of control

O=C(O)c1ccc(NC(Nc2ccc(C(=O)O)cc2)C(=O)c2ccccc2)cc1
inactive: [16] 95 % of control | [17] 89 % of control | [18] 101 % of control

CC1=[N+]([O-])[N+]([O-])=C(c2ccccc2)C1=O
inactive: [14] 100 % of control | [19] 95 % of control | [20] 87 % of control

COc1ccc(NCNc2ccc(OC)cc2)cc1
inactive: dose: 50.0 mg/kg/injection, schedule: Q01DX009 (ip), vehicle: Klucel (hydroxypropylcellulose) (HPC) 94 % of control | [2] 98 % of control | [3] 103 % of control | [5] 103 % of control

CCCCN1C(=O)NC(=O)C1c1ccsc1 (centres undefined)
inactive: dose: 100.0 mg/kg/injection, schedule: Q01DX001 (ip), vehicle: carboxymethylcellulose (CMC) 103 % of control | dose: 200.0 mg/kg/injection, schedule: Q01DX001 (ip), vehicle: carboxymethylcellulose (CMC) 94 % of control | dose: 400.0 mg/kg/injection, schedule: Q01DX001 (ip), vehicle: carboxymethylcellulose (CMC) 100 % of control

CCCCCCCCCCCCCCCCCC(=O)OCC(=O)C(OC(=O)CCCCCCCCCCCCCCCCC)C(OC(=O)CCCCCCCCCCCCCCCCC)C(COC(=O)CCCCCCCCCCCCCCCCC)OC(=O)CCCCCCCCCCCCCCCCC (centres undefined)
inactive: dose: 100.0 mg/kg/injection, schedule: Q01DX001 (ip), vehicle: other 95 % of control | dose: 200.0 mg/kg/injection, schedule: Q01DX001 (ip), vehicle: other 98 % of control | dose: 400.0 mg/kg/injection, schedule: Q01DX001 (ip), vehicle: other 93 % of control

O=C(Nc1ccccc1)Sc1ccccc1
inactive: dose: 62.5 mg/kg/injection, schedule: Q01DX001 (ip), vehicle: Klucel (hydroxypropylcellulose) (HPC) 97 % of control

O=C(O)c1ccc2c(c1)C(=O)N(c1ccccc1)C2=O
inactive: [21] 93 % of control | [22] 93 % of control | [23] 97 % of control

C(=C\c1ccc(-n2nc3ccc4ccccc4c3n2)cc1)/c1ccccc1
inactive: [11] 97 % of control | [12] 102 % of control | [13] 102 % of control

FC(F)(F)c1ccc(Cl)c(NC2=NCCCS2)c1
inactive: dose: 10.0 mg/kg/injection, schedule: Q01DX009 (ip), vehicle: saline 107 % of control | dose: 20.0 mg/kg/injection, schedule: Q01DX009 (ip), vehicle: saline 97 % of control | dose: 40.0 mg/kg/injection, schedule: Q01DX009 (ip), vehicle: saline 96 % of control | [1] 95 % of control | [2] 96 % of control | [3] 97 % of control | [4] 97 % of control | [5] 95 % of control | [7] 94 % of control

COc1ccc(/C=N/NC(=S)Nc2ccccc2)cc1
inactive: [2] 103 % of control | [4] 95 % of control | [6] 108 % of control

CN(CSc1c(Cl)c(Cl)c(Cl)c(Cl)c1Cl)c1ccccc1
inactive: [14] 103 % of control | [19] 98 % of control | [20] 93 % of control

Cc1nc(N)[nH]c(=O)c1CCCNc1ccc(CCC2(CCl)OCCO2)cc1
inactive: dose: 50.0 mg/kg/injection, schedule: Q01DX Z (ip), vehicle: carboxymethylcellulose (CMC) 98 % of control | dose: 100.0 mg/kg/injection, schedule: Q01DX Z (ip), vehicle: carboxymethylcellulose (CMC) 101 % of control | dose: 200.0 mg/kg/injection, schedule: Q01DX Z (ip), vehicle: carboxymethylcellulose (CMC) 101 % of control | dose: 400.0 mg/kg/injection, schedule: Q01DX Z (ip), vehicle: carboxymethylcellulose (CMC) 90 % of control

CCOC(=O)CCc1[nH]c2nnc(C)cc2c1[N+](=O)[O-]
inactive: dose: 56.3 mg/kg/injection, schedule: Q04DX002 (ip), vehicle: Klucel (hydroxypropylcellulose) (HPC) 100 % of control | dose: 112.5 mg/kg/injection, schedule: Q04DX002 (ip), vehicle: Klucel (hydroxypropylcellulose) (HPC) 106 % of control | dose: 225.0 mg/kg/injection, schedule: Q04DX002 (ip), vehicle: Klucel (hydroxypropylcellulose) (HPC) 91 % of control

C1CCC(CC2CCNCC2)CC1
inactive: dose: 12.5 mg/kg/injection, schedule: Q04DX003 (ip), vehicle: saline with Tween-80 105 % of control | dose: 25.0 mg/kg/injection, schedule: Q04DX003 (ip), vehicle: saline with Tween-80 96 % of control | dose: 50.0 mg/kg/injection, schedule: Q04DX003 (ip), vehicle: saline with Tween-80 102 % of control

O=C(O)c1ccccc1N=Cc1ccccc1Cl
inactive: [21] 101 % of control | [22] 108 % of control | [23] 93 % of control

O=C(O)/C=C/C(=O)NCCc1ccccc1
inactive: [2] 91 % of control | [4] 102 % of control | [6] 96 % of control

NC(=O)c1cc(C(N)=O)c(N)nc1N
inactive: [3] 100 % of control | [5] 97 % of control | [7] 94 % of control

CCNC(=O)OC1C=CS(=O)(=O)C1 (centres undefined)
inactive: dose: 100.0 mg/kg/injection, schedule: Q04DX002 (ip), vehicle: saline 106 % of control | dose: 200.0 mg/kg/injection, schedule: Q04DX002 (ip), vehicle: saline 92 % of control | dose: 400.0 mg/kg/injection, schedule: Q04DX002 (ip), vehicle: saline 106 % of control

CN=C(N)c1ccc(S(=O)(=O)N=C(N)N)cc1
inactive: [16] 96 % of control | [17] 98 % of control | [18] 100 % of control

NC(=O)C1CCCN1Cc1ccc2c(c1)OCO2 (centres undefined)
inactive: [16] 97 % of control | [17] 94 % of control | [18] 94 % of control
